Consider 12 compounds from US20220168310A1, “INHIBITION OF ADENOVIRUS WITH FILOCICLOVIR” (Microbiotix, Inc., priority 2019, published 2022).

Molecules are shown by their SMILES. Read-outs that look alike come from different tables or passages of the source.

A word on the CC50: it is the concentration that lowers cell viability or growth by half. High values mean lower toxicity to the cells, low ones greater toxicity to the cells. The term EC50 denotes the concentration at which the effect is half-maximal. As usually defined, the IC50 is the concentration that inhibits the measured activity by half.

The nature of data set [1]: Cytotoxicity, CellTiter-Glo cell viability assay in HFF cells. Conditions: human. As to the method: (§1) Human foreskin tissue was obtained from the University of Alabama at Birmingham tissue procurement facility with approval from the Institutional Review Board. The tissue was stored at 4° C. in cell culture medium consisting of minimum essential media (MEM) with Earle's salts supplemented with 10% fetal bovine serum (FBS; HyClone, Inc., Logan, Utah) and standard concentration of L-glutamine, amphotericin B (Fungizone), and vancomycin. The tissue was then placed in a phosphate-buffered saline solution, minced, and rinsed to remove the red blood cells. Tissue fragments were then resuspended in a trypsin-EDTA solution and incubated at 37° C. to disperse the cells, which were then collected by centrifugation. Cell pellets were then resuspended in 4 ml culture medium, placed in a 25-cm^2 tissue culture flask, and incubated at 37° C. for 24 h. The culture medium was then replaced with fresh medium and condition of the cells was monitored daily until a confluent cell monolayer was formed. The HFF cells were then expanded through serial passages in standard growth medium of MEM with Earle's salts supplemented with 10% FBS, L-glutamine, penicillin, and gentamicin. Each lot of cells was confirmed to be free of mycoplasma infection and routinely passaged or used for assays at or before passage 10.
(§2) Antiviral and cytotoxicity data were obtained in a series of three to five separate experiments for each virus to provide an accurate estimate of antiviral activity and statistical data. Each assay included positive and negative control compounds as well as infected and uninfected controls to ensure the integrity of the experiment.
(§3) The CPE reduction assays were performed in monolayers of human foreskin fibroblast (HFF) cells (5000/well) in 384-well plates in assay media consisting of MEM with Earle's salts, 2% FBS and standard concentrations of L-glutamine, penicillin and gentamycin. 5000 cells were seeded in 384-well microtiter plates and incubated at 37° C. in a humidified 5% CO2 incubator for 24 hours to allow for formation of confluent monolayers.
(§4) Cell monolayers were infected at a multiplicity of infection (MOI) of approximately 0.005 PFU/cell with virus strains including AdV5. […] Cytopathology was determined by the addition of CellTiter-Glo® reagent (Promega, Madison, Wis.). Concentrations of antiviral test compounds sufficient to reduce CPE by 50% (EC50) were interpolated from the experimental data using standard methods in Microsoft® Excel.
In general terms: Cellular ATP, detected with luciferase, serves as a proxy for viable cell number.

The subject of data set [2] is Adenovirus 5 (AdV5). The experiment in a line: Cytopathic effects (CPE) reduction assay, AdV5 in HFF cells, 384-well. Format: cell-based, human adenovirus. Conditions: for SI: CC50/EC50, AdV5. (In general: Damage to the host cells serves as the signal in cytopathic effect assays.)
The subject of data set [3] is Human AdV6. The experiment in a line: Low dose filociclovir against intravenously administered AdV6 in immunosuppressed hamsters (Example 6). As to the method: Three dose levels were tested: 1, 3, and 10 mg/kg p.o. q.d.
All hamsters were immunosuppressed using cyclophosphamide (CP) administered intraperitoneally at a dose of 140 mg/kg, and then twice weekly at a dose of 100 mg/kg. Filociclovir in powdered form was suspended in 0.4% carboxymethyl cellulose (Sigma C5678) at 0.1, 0.3, and 1.0 mg/ml and sonicated to visual homogeneity. Filociclovir was made up once weekly, aliquoted into daily portions, and stored at 4° C. Aliquots were allowed to equilibrate to room temperature before dosing.
Hamsters were distributed into 7 groups, 15 hamsters/group (see Table 4), immunosuppressed as described above, and injected i.v. with vehicle (Groups 1-2) or 4×10^10 PFU/kg of AdV6 (Groups 3-7). Groups 1 and 3 received drug vehicle (p.o. q.d.), Groups 2 and 6 received 10 mg/kg filociclovir (p.o. q.d.), Group 4 received 3 mg/kg filociclovir (p.o. q.d.), Group 5 received 1 mg/kg filociclovir (p.o. q.d.), and Group 7 received cidofovir (one dose of 37 mg/kg, followed by 20 mg/kg doses 3 times weekly). For all groups, drug administration started 1 day before challenge, and continued according to the schedule above for the duration of the study.
The body weights and any signs of morbidity of the animals were monitored and recorded daily. At 5 days post challenge, 5 hamsters (designated at the start of the experiment) from each group were sacrificed, and gross pathological observation was performed. Serum and liver were collected and virus burden in liver was determined by TCID50 assay and the serum was analyzed for transaminase levels. The remaining 10 hamsters were sacrificed at 14 days post challenge. Hamsters that became moribund before Day 14 were sacrificed as needed. In addition to the animals judged moribund by observation, we sacrificed all hamsters that lost more than 20% of their original body weight. For all animals, liver tissue was preserved in formalin for histopathological examination.

Data set [4] has as its system Human AdV6. The experiment in a line: High dose filociclovir against intravenously administered AdV6 in immunosuppressed hamsters (Example 5). As to conditions: 5 days post challenge, CDV 20 mg/kg 3 times weekly. As to the method:
Four dose levels were tested: 10, 30, 60, and 100 mg/kg p.o. q.d. The highest dose was determined based on rat toxicology data.
All hamsters were immunosuppressed using cyclophosphamide (CP). CP was administered intraperitoneally at a dose of 140 mg/kg, and then twice weekly at a dose of 100 mg/kg.
Filociclovir, in powdered form, was suspended in 0.4% carboxymethyl cellulose (Sigma C5678) at 1, 3, 6, and 10 mg/ml and sonicated to visual homogeneity and aliquots stored at 4° C. Aliquots were allowed to equilibrate to room temperature before dosing. Hamsters weighing approximately 100 g were dosed with a 1 ml volume of the appropriate suspension for the 10, 30, 60, and 100 mg/kg dose levels. References to “vehicle” refers to 0.4% carboxymethyl cellulose
The hamsters were divided into 8 groups, 15 hamsters/group, (with the exception of Group 2, which had only 5 hamsters; see Table 3), immunosuppressed, and then injected i.v. with vehicle (Groups 1-2) or 2×10^10 PFU/kg of AdV6 (Groups […]). Groups 1 and 3 received drug vehicle (p.o. q.d.), Group 4 received 10 mg/kg filociclovir (p.o. q.d.), Group 5 received 30 mg/kg filociclovir (p.o. q.d.), Group 6 received 60 mg/kg filociclovir (p.o. q.d.), Groups 2 and 7 received 100 mg/kg filociclovir (p.o. q.d.), and Group 8 received cidofovir (20 mg/kg, 3 times weekly). For all groups, drug administration started 1 day before challenge, and continued according to the schedule above for the duration of the study.
The body weights and any signs of morbidity of the animals were recorded daily. At 5 days post challenge, 5 hamsters (designated at the start of the experiment) from each group (with the exception of Group 2) were sacrificed, and gross pathological observation was performed. Serum and liver samples were collected and the virus burden in liver was determined by a TCID50 assay, and the serum was analyzed for transaminase levels. The remaining 10 hamsters were sacrificed at 14 days post challenge. Hamsters that became visually moribund before Day 14 were sacrificed as needed. In addition to the hamsters observed to be moribund, all hamsters that lost more than 20% of their original body weight were also sacrificed. For the hamsters sacrificed at the conclusion of the experiment and those sacrificed as moribund, serum and liver tissues were collected and banked for possible determination of serum transaminase levels and virus burden in the liver. Liver tissue was preserved in formalin for possible histopathological examination.

Data set [5] concerns human foreskin fibroblast (HFF) cells. As to the kind of experiment: Cytotoxicity, CellTiter-Glo cell viability assay in HFF cells. Here is the method:
as §1, §2, §3, §4

The subject of data set [6] is AdV5. Conditions: background, Kinchington et al 2005 cited; read-out: IC50 against AdV5; cited from earlier work.
[7] abbreviates: Human mastadenovirus C, AdV5, HFF cells, 384 well CPE, average and SD from five independent experiments, read-out: EC50.
Setting [8] is: human foreskin fibroblast (HFF) cell monolayers, CC50, HFF cells, run with AdV5 assay, average and SD from five independent experiments.
Setting [9] is: AdV5, HFF cells, 384 well CPE, average and SD from five independent experiments, read-out: EC50.
[10] abbreviates: HFF cells, run with AdV5 assay, average and SD from five independent experiments.

As to `Nc1ncnc2c1ncn2CCOCP(=O)(O)O` [PMEA, adefovir], the CC50 in data set [1] was more than 100 µM. The SI in data set [2] is reported as 2.1. Besides, the EC50 in data set [2] (setting [7]) worked out at 48 ± 8 µM.
Take `Nc1ccn(C[C@@H](CO)OCP(=O)(O)O)c(=O)n1` [CDV, cidofovir, reference compound]: the “AdV6-induced liver damage, serum transaminase (ALT)” value in data set [3] (CDV, 5 days post challenge) is “completely prevented AdV6-induced liver pathology”. For the same compound, in data set [3] (CDV, 5 days post challenge, TCID50), the “AdV6 replication in the liver” value is “completely prevented AdV6 replication in the liver”. In data set [3] (cidofovir 37 mg/kg once, then 20 mg/kg 3 times weekly), the body weight loss result was “completely reversed body weight loss”. The compound further showed a half-maximal cytotoxic concentration (CC50) in data set [1] (setting [8]) of 97 ± 4 µM. Further, the “animals with elevated serum transaminase levels (ALT)” value in data set [4] (filociclovir p.o. q.d. groups) is reported as “none”. The “virus burden in the liver” value in data set [4] (TCID50) is reported as “very low to nonquantifiable levels”. Further, the EC50 in data set [2] (Human mastadenovirus C, HFF) was 4 ± 2 µM.
In data set [5], `O=c1[nH]c(=O)n([C@@H]2CO[C@H](CO)O2)cc1/C=C/Br` [L-BHDU, L-Bromovinyl-Hydroxymethyl-Dioxolan Uracil] showed a CC50 of more than 100 µM. For the same compound, the EC50 in data set [2] (setting [9]) is more than 100 µM. In data set [2], this compound registered an SI of 1.0.
Consider `CCCCCCCCCCCCCCCCOCCCOP(=O)(O)CO[C@H](CO)Cn1ccc(N)nc1=O` [CMX001, brincidofovir], for which, in data set [1] (setting [8]), the CC50 turned out to be 0.83 ± 0.7 µM. The compound further returned an SI in data set [2] of 27.7. In data set [2] (setting [7]), the 50% effective concentration (EC50) was less than 0.03 µM.
In data set [5], `O=c1[nH]c(=O)n([C@@H]2O[C@H](CO)[C@@H](O)[C@@H]2F)cc1I` [FIAU] returned a CC50 of more than 100 µM. Also, the concentration giving a half-maximal response (EC50) in data set [2] (setting [9]) was more than 100 µM. This compound yielded an SI in data set [2] of 1.0.
For `Nc1nc2c(ncn2COCCO)c(=O)[nH]1` [ACV, acyclovir], in data set [1] (setting [8]), the CC50 was more than 100 µM. For the same compound, the SI in data set [2] turned out to be 1.0. Besides, the EC50 in data set [2] (setting [7]) was more than 100 µM.
`OC[C@H]1O[C@@H](n2c(Br)nc3cc(Cl)c(Cl)cc32)[C@H](O)[C@@H]1O` [BDCRB, bromodichlororibobenzimidazole] gave a CC50 in data set [5] (setting [10]) of 91 ± 13 µM. Also, in data set [2] (setting [9]), the concentration giving a half-maximal response (EC50) stood at 70 ± 39 µM. Further, the SI in data set [2] was determined as 1.3.
`Nc1nc2c(ncn2CCC(CO)CO)c(=O)[nH]1` [PCV, penciclovir] had a CC50 in data set [1] (setting [8]) of more than 100 µM. In addition, the SI in data set [2] was determined as 1.0. The concentration giving a half-maximal response (EC50) in data set [2] (setting [7]) was more than 100 µM.
As to `O=C(O)P(=O)(O)O` [PFA, foscarnet], the half-maximal cytotoxic concentration (CC50) in data set [1] (setting [8]) is more than 1000 µM. Also, in data set [2], the SI is 1.0. Besides, the concentration for a half-maximal effect (EC50) in data set [2] (setting [7]) is more than 1000 µM.
In turn, `O=c1[nH]c(=O)n([C@H]2C[C@H](O)[C@@H](CO)O2)cc1I` [IDU, idoxuridine] had a CC50 in data set [1] (setting [8]) of more than 100 µM. The SI in data set [2] is 1.0. Also, the EC50 in data set [2] (setting [7]) is more than 100 µM.
Regarding `Cc1cn([C@H]2C[C@H](O)[C@]3(CO)C[C@H]23)c(=O)[nH]c1=O` [N-MCT, N-methanocarbathymidine], the midpoint of cytotoxicity in data set [5] (setting [10]), the CC50, lay at 72 ± 33 µM. Moreover, the concentration giving a half-maximal response (EC50) in data set [2] (setting [9]) worked out at 57 ± 47 µM. Also, the SI in data set [2] came to 1.3.
`Nc1nc(O)c2ncn(COC(CO)CO)c2n1` [GCV, ganciclovir] displayed a CC50 in data set [1] (setting [8]) of more than 100 µM. In addition, the IC50 in data set [6] is 66 ± 15.1 µM; in data set [2] (Human mastadenovirus C, HFF, read-out: IC50 value against AdV5), 66 µM. This compound gave a concentration for a half-maximal effect (EC50) in data set [2] (Human mastadenovirus C, HFF) of 66 ± 15.1 µM.
